Reference: US20250270191A1, “QUINOLONE BCL6 BIFUNCTIONAL DEGRADERS” (Treeline Biosciences, Inc., priority 2022, published 2025)

Target: T1, Human BCL6 protein (N-terminal HiBiT tagged BCL6 in HT1080 cells) (Homo sapiens, UniProt P41182+Q96SW2)
T1 construct: Human BCL6 protein coding open reading frame; expressed in transfected cells; host or cells: HT1080 (ATCC CCL-121), stably transduced with lentivirus pLV-UBC-N-HiBiT-BCL6-PGK-puro
Experiment: HiBiT based BCL6 degradation assay
Format: cell-based
Settings: HT1080 cells expressing N-terminal HiBiT tagged BCL6; 5 hours incubation; BCL6 degradation normalized with DMSO control
How it was run: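 HT1080 cells stably expressing N-terminal HiBiT-BCL6 were treated with compound dilution series for 5 h at 37° C. in RPMI 1640 with 10% FBS. HiBiT lytic luminescence read after 15 min; degradation normalized to DMSO, with curves fitted by four-parameter logistic model.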

Row | Ymin (5 hr) | Structure (SMILES)
1 | ++ (50% < Ymin ≤ 70%) | CNC(=O)COc1cc2cc(Nc3nc(N4CCC[C@H](CN(C)c5ccc6c(C7CCC(=O)NC7=O)nn(C)c6c5)C4)ncc3Cl)ccc2n(C)c1=O (stereo partly drawn) [Compound 312a, 2-((6-((5-chloro-2-((3R)-3-(((3-(2,6-dioxopiperidin-3-yl)-1-methyl-1H-indazol-6-yl)(methyl)amino)methyl)piperidin-1-yl)pyrimidin-4-yl)amino)-1-methyl-2-oxo-1,2-dihydroquinolin-3-yl)oxy)-N-methylacetamide]
2 | ++ (50% < Ymin ≤ 70%) | CNC(=O)COc1cc2cc(Nc3nc(NC[C@@H]4CCCN(c5ccc6c(C7CCC(=O)NC7=O)nn(C)c6c5)C4)ncc3Cl)ccc2n(C)c1=O (stereo partly drawn) [Compound 295b, 2-((6-((5-chloro-2-((((3S)-1-(3-(2,6-dioxopiperidin-3-yl)-1-methyl-1H-indazol-6-yl)piperidin-3-yl)methyl)amino)pyrimidin-4-yl)amino)-1-methyl-2-oxo-1,2-dihydroquinolin-3-yl)oxy)-N-methylacetamide]
3 | ++++ (Ymin ≤ 25%) | CNC(=O)COc1cc2cc(Nc3nc(N4C[C@@H](C)N(CC5CCN(c6cccc7c(C8CCC(=O)NC8=O)nn(C)c67)CC5)[C@@H](C)C4)ncc3Cl)ccc2n(C)c1=O (stereo partly drawn) [Compound 336a, 2-((6-((5-chloro-2-((3S,5R)-4-((1-(3-(2,6-dioxopiperidin-3-yl)-1-methyl-1H-indazol-7-yl)piperidin-4-yl)methyl)-3,5-dimethylpiperazin-1-yl)pyrimidin-4-yl)amino)-1-methyl-2-oxo-1,2-dihydroquinolin-3-yl)oxy)-N-methylacetamide]
4 | ++ (50% < Ymin ≤ 70%) | CNC(=O)COc1cc2cc(Nc3nc(NC[C@H]4CCCN(c5cccc6c(C7CCC(=O)NC7=O)nn(C)c56)C4)ncc3Cl)ccc2n(C)c1=O (stereo partly drawn) [Compound 303b, 2-((6-((5-chloro-2-((((3R)-1-(3-(2,6-dioxopiperidin-3-yl)-1-methyl-1H-indazol-7-yl)piperidin-3-yl)methyl)amino)pyrimidin-4-yl)amino)-1-methyl-2-oxo-1,2-dihydroquinolin-3-yl)oxy)-N-methylacetamide]
5 | ++ (50% < Ymin ≤ 70%) | CNC(=O)COc1cc2cc(Nc3nc(N4CCC[C@@H]4CNc4cccc(C5CCC(=O)NC5=O)c4)ncc3Cl)ccc2n(C)c1=O (stereo partly drawn) [Compound 260a, 2-((6-((5-chloro-2-((2R)-2-(((3-(2,6-dioxopiperidin-3-yl)phenyl)amino)methyl)pyrrolidin-1-yl)pyrimidin-4-yl)amino)-1-methyl-2-oxo-1,2-dihydroquinolin-3-yl)oxy)-N-methylacetamide]
6 | +++ (25% < Ymin ≤ 50%) | CNC(=O)COc1cc2cc(Nc3nc(N4CCO[C@H](COc5ccc6c(C7CCC(=O)NC7=O)nn(C)c6c5)C4)ncc3Cl)ccc2n(C)c1=O (stereo partly drawn) [Compound 317a, 2-((6-((5-chloro-2-((2S)-2-(((3-(2,6-dioxopiperidin-3-yl)-1-methyl-1H-indazol-6-yl)oxy)methyl)morpholino)pyrimidin-4-yl)amino)-1-methyl-2-oxo-1,2-dihydroquinolin-3-yl)oxy)-N-methylacetamide]
7 | +++ (25% < Ymin ≤ 50%) | CNC(=O)COc1cc2cc(Nc3nc(N4CCN(C[C@H]5CCN(c6cccc7c(C8CCC(=O)NC8=O)nn(C)c67)C5)CC4)ncc3Cl)ccc2n(C)c1=O (stereo partly drawn) [Compound 305a, 2-((6-((5-chloro-2-(4-(((3R)-1-(3-(2,6-dioxopiperidin-3-yl)-1-methyl-1H-indazol-7-yl)pyrrolidin-3-yl)methyl)piperazin-1-yl)pyrimidin-4-yl)amino)-1-methyl-2-oxo-1,2-dihydroquinolin-3-yl)oxy)-N-methylacetamide]

The next lines start with the compound.

Row | Structure (SMILES) | Ymin (5 hr)
8 | CNC(=O)COc1cc2cc(Nc3nc(N4CCN(C(=O)C5CCN(c6cccc7c(C8CCC(=O)NC8=O)nn(C)c67)CC5)CC4)ncc3Cl)ccc2n(C)c1=O (stereo not shown) [Compound 345, 2-((6-((5-chloro-2-(4-(1-(3-(2,6-dioxopiperidin-3-yl)-1-methyl-1H-indazol-7-yl)piperidine-4-carbonyl)piperazin-1-yl)pyrimidin-4-yl)amino)-1-methyl-2-oxo-1,2-dihydroquinolin-3-yl)oxy)-N-methylacetamide] | ++++ (Ymin ≤ 25%)
9 | CNC(=O)COc1cc2cc(Nc3nc(N4CCC5(CCC(Nc6cccc7c(C8CCC(=O)NC8=O)nn(C)c67)CC5)C4)ncc3Cl)ccc2n(C)c1=O (stereo not shown) [Compound 344, 2-((6-((5-chloro-2-(8-((3-(2,6-dioxopiperidin-3-yl)-1-methyl-1H-indazol-7-yl)amino)-2-azaspiro[4.5]decan-2-yl)pyrimidin-4-yl)amino)-1-methyl-2-oxo-1,2-dihydroquinolin-3-yl)oxy)-N-methylacetamide] | ++ (50% < Ymin ≤ 70%)
10 | CNC(=O)COc1cc2cc(Nc3nc(N4CCN(CC5CCC6(CC5)CN(c5cccc7c(C8CCC(=O)NC8=O)nn(C)c57)C6)CC4)ncc3Cl)ccc2n(C)c1=O (stereo not shown) [Compound 104, 2-((6-((5-chloro-2-(4-((2-(3-(2,6-dioxopiperidin-3-yl)-1-methyl-1H-indazol-7-yl)-2-azaspiro[3.5]nonan-7-yl)methyl)piperazin-1-yl)pyrimidin-4-yl)amino)-1-methyl-2-oxo-1,2-dihydroquinolin-3-yl)oxy)-N-methylacetamide] | +++ (25% < Ymin ≤ 50%)
11 | CNC(=O)COc1cc2cc(Nc3nc(N4CCC(C5CN(c6ccc7c(C8CCC(=O)NC8=O)nn(C)c7c6)C5)CC4)ncc3Cl)ccc2n(C)c1=O (stereo not shown) [Compound 292, 2-((6-((5-chloro-2-(4-(1-(3-(2,6-dioxopiperidin-3-yl)-1-methyl-1H-indazol-6-yl)azetidin-3-yl)piperidin-1-yl)pyrimidin-4-yl)amino)-1-methyl-2-oxo-1,2-dihydroquinolin-3-yl)oxy)-N-methylacetamide] | +++ (25% < Ymin ≤ 50%)
12 | CNC(=O)COc1cc2cc(Nc3nc(N4CC5CCC(Nc6cccc7c(C8CCC(=O)NC8=O)nn(C)c67)CC5C4)ncc3Cl)ccc2n(C)c1=O (stereo not shown) [Compound 339, 2-((6-((5-chloro-2-(5-((3-(2,6-dioxopiperidin-3-yl)-1-methyl-1H-indazol-7-yl)amino)octahydro-2H-isoindol-2-yl)pyrimidin-4-yl)amino)-1-methyl-2-oxo-1,2-dihydroquinolin-3-yl)oxy)-N-methylacetamide] | ++ (50% < Ymin ≤ 70%)
13 | CNC(=O)COc1cc2cc(Nc3nc(N4CCC(CC5CCN(c6cccc7c(C8CCC(=O)NC8=O)nn(C)c67)C5)CC4)ncc3Cl)ccc2n(C)c1=O (stereo not shown) [Compound 320, 2-((6-((5-chloro-2-(4-((1-(3-(2,6-dioxopiperidin-3-yl)-1-methyl-1H-indazol-7-yl)pyrrolidin-3-yl)methyl)piperidin-1-yl)pyrimidin-4-yl)amino)-1-methyl-2-oxo-1,2-dihydroquinolin-3-yl)oxy)-N-methylacetamide] | +++ (25% < Ymin ≤ 50%)
14 | CNC(=O)COc1cc2cc(Nc3nc(N4CCCC5(CCCN(c6cccc7c(C8CCC(=O)NC8=O)nn(C)c67)C5)C4)ncc3Cl)ccc2n(C)c1=O (stereo not shown) [Compound 330, 2-((6-((5-chloro-2-(8-(3-(2,6-dioxopiperidin-3-yl)-1-methyl-1H-indazol-7-yl)-2,8-diazaspiro[5.5]undecan-2-yl)pyrimidin-4-yl)amino)-1-methyl-2-oxo-1,2-dihydroquinolin-3-yl)oxy)-N-methylacetamide] | ++ (50% < Ymin ≤ 70%)
15 | CNC(=O)COc1cc2cc(Nc3nc(N4CCN(CC5CCN(c6ccc7c(C8CCC(=O)NC8=O)nn(C)c7c6)CC5)CC4)ncc3Cl)ccc2n(C(C)C)c1=O (stereo not shown) [Compound 108, 2-((6-((5-chloro-2-(4-((1-(3-(2,6-dioxopiperidin-3-yl)-1-methyl-1H-indazol-6-yl)piperidin-4-yl)methyl)piperazin-1-yl)pyrimidin-4-yl)amino)-1-isopropyl-2-oxo-1,2-dihydroquinolin-3-yl)oxy)-N-methylacetamide] | +++ (25% < Ymin ≤ 50%)
16 | CNC(=O)COc1cc2cc(Nc3nc(N4CCN(C(C)(C)C5CCN(c6cccc7c(C8CCC(=O)NC8=O)nn(C)c67)CC5)CC4)ncc3Cl)ccc2n(C)c1=O (stereo not shown) [Compound 337, 2-((6-((5-chloro-2-(4-(2-(1-(3-(2,6-dioxopiperidin-3-yl)-1-methyl-1H-indazol-7-yl)piperidin-4-yl)propan-2-yl)piperazin-1-yl)pyrimidin-4-yl)amino)-1-methyl-2-oxo-1,2-dihydroquinolin-3-yl)oxy)-N-methylacetamide] | ++++ (Ymin ≤ 25%)
17 | CNC(=O)COc1cc2cc(Nc3nc(N4CCC(CN5CCN(C(=O)c6cccc(C7CCC(=O)NC7=O)c6)CC5)CC4)ncc3Cl)ccc2n(C)c1=O (stereo not shown) [Compound 314, 2-((6-((5-chloro-2-(4-((4-(3-(2,6-dioxopiperidin-3-yl)benzoyl)piperazin-1-yl)methyl)piperidin-1-yl)pyrimidin-4-yl)amino)-1-methyl-2-oxo-1,2-dihydroquinolin-3-yl)oxy)-N-methylacetamide] | ++ (50% < Ymin ≤ 70%)
18 | CNC(=O)COc1cc2cc(Nc3nc(N4CCC(CNc5ccc(C6CCC(=O)NC6=O)cc5)CC4)ncc3Cl)ccc2n(C)c1=O (stereo not shown) [Compound 265, 2-((6-((5-chloro-2-(4-(((4-(2,6-dioxopiperidin-3-yl)phenyl)amino)methyl)piperidin-1-yl)pyrimidin-4-yl)amino)-1-methyl-2-oxo-1,2-dihydroquinolin-3-yl)oxy)-N-methylacetamide] | ++ (50% < Ymin ≤ 70%)
19 | CNC(=O)COc1cc2cc(Nc3cc(N4CCN(CC5CCN(c6cccc7c(C8CCC(=O)NC8=O)nn(C)c67)CC5)CC4)ncc3Cl)ccc2n(C)c1=O (stereo not shown) [Compound 346, 2-((6-((5-chloro-2-(4-((1-(3-(2,6-dioxopiperidin-3-yl)-1-methyl-1H-indazol-7-yl)piperidin-4-yl)methyl)piperazin-1-yl)pyridin-4-yl)amino)-1-methyl-2-oxo-1,2-dihydroquinolin-3-yl)oxy)-N-methylacetamide] | ++++ (Ymin ≤ 25%)
